Measured values: patent US20070203126A1, “Synergistic Mixtures of O-Phenylphenol and Dazomet” (priority 2002, published 2007)
Read-outs that look alike come from different tables or passages of the source.

Tests used:
[1] = test system: mixed inoculum of bacteria; test: microtiter plate MIC and combination (K value) test in nutrient broth; assay type: cell-based; settings: 24 hours, read-out: MIC RESULTS against mixed inoculum of bacteria
Protocol: EQUIPMENT used for the experiment are as follows: • 1. Incubator capable of maintaining a variable temperature range (25-45 C.); • 2. Samples of each biocide or test compound to be examined; • 3. Microtiter plates—96 well with lid, sterile; • 4. 8-12 channel micropipetting device capable of pipetting 0-250 ul volumes; • 5. Micropipette tips capable of holding up to 250 ul volumes; • 6. Sterile microbiological culture broth. Trypticase Soy Broth (TSB) or Nutrient Broth (NB) is recommended for bacteria and Sabouraud Maltose Broth (SMB) or Sabouraud Dextrose Broth (SDB) is recommended for yeasts and molds. In the case of this particular study the microbiological culture medium was Nutrient Broth at pH 7.0, 8.0 and 9.0; • 7. Pure cultures of microorganisms of choice grown on appropriate agar medium; • 8. Sterile distilled water; • 9. 100 mL volumetric flasks (one for each biocide to be tested); • 10. Sterile 10 mL tubes of Phosphate buffer (Butterfield's buffer pH 7.2+/−0.2). Contains purified water, monobasic potassium phosphate and sodium hydroxide for pH adjustment; • 11. Sterile cotton swabs; • 12. 0.5 MacFarland Turbidity Standard;
Preparation of Bacterial Inocula
The day before testing, perform a streak plate of each organism to be tested on an appropriate agar medium (Trypticase Soy Agar). Organisms tested in this study were.
Wild strain bacteria isolated from previously contaminated industrial systems and which were identified as: Pseudomonas sp., Escherchia coli, Enterobacter sp., Alcaligenes sp. and Alcaligenes faecalis. On the day of the test, use a sterile cotton swab to harvest some of the growth. Place swab into a tube containing 10 mL sterile phosphate buffer. Compare and adjust the turbidity of the organisms in the tube to 1×10^8 cfu/mL using a 0.5 MacFarland Turbidity Standard. Dilute the 10 mL tube into 90 mL of sterile 2× nutrient broth at pH 7.0, 8.0 and 9.0.
The following procedure was used: • 1. Design the layout of the microtiter plates based on the number of organisms to test and the number of biocides and desired concentrations to test. A separate microtiter plate is required for testing each biocide alone, in addition to the combination microtiter plate. • 2. Prepare a working stock solution of each biocide to be tested. For the combination microtiter plate, the working stock solution of Biocide A will be 8× the concentration desired in the first well of the combination microtiter plate. The working stock solution of Biocide B will be 4× the concentration desired in the first well of the combination microtiter plate. For the alone microtiter plates, the working stock solutions of Biocide A and Biocide B will both be 4× the concentration desired in the first well of the single biocide microtiter plates.
Tetrahydro-3-5-dimethyl-2H-1,3-5-thiadiazine-2-thione (Dazomet): (For combination plates) A solution of this product, which is 99% active, was made as follows: […]=8000 ppm active=8000/0.99=8080 ppm, 0.8 g into 100 mL MeOH and sterile diH2O.
o-Phenylphenol (OPP): (For combination plates) Make a solution of this product which is 99% active, 4×125=500 ppm active=500/0.99=505 ppm, 0.05 g into 100 mL MeOH and sterile diH2O. Level to test is 125 ppm.
(For alone plates) A solution was made as follows: 4×4000=16000 ppm active=16000/0.99=16161 ppm, 1.6 into 100 mL MeOH and sterile diH2O. Levels to test are: 4000 ppm, 2000 ppm, 1000 ppm, 500 ppm, 250 ppm, 125 ppm, 62.5 ppm, 31.2 ppm, 15.6 ppm, 7.8 ppm, 3.9 ppm, 1.95 ppm • 3. Place 50 ul of sterile distilled water in all of the rows in columns 1 through 10, and 100 ul of sterile distilled water in all of the rows in columns 11 and 12 of the 96 well combination microtiter plate. Place 100 ul of sterile distilled water in each well of the 96 well alone microtiter plates. • 4. For the combination microtiter plate, place 50 ul of the Biocide A stock solution into all of the rows in column 1 of the combination microtiter plate. • 5. […]

[2] = test system: artificial bacterial consortium containing approximately equal numbers of six bacterial strains; test: bacterial growth inhibition dose protocol in synthetic white water (O.D. 650 nm, 4 hours); assay type: cell-based; settings: for Synergy Index: Dazomet & NaOPP, end point 50% inhibition, SI<1 synergism
Protocol: The actives were evaluated in synthetic white water with pH values of 5.5 and 8.0. The materials were tested against an artificial bacterial consortium containing approximately equal numbers of six bacterial strains. […] Two of the strains were Kiebsiella pneumoia (ATCC 13883) and Pseudomonas aeruginosa (ATCC 15442). The other four strains were isolated from papermill systems and have been identified as Curtobacterium flaccumfaciens, Burkhlderia cepacia, Bacillus maroccanus, and Pseudomonas glethei. Each strain was inoculated at 37° C. overnight, then suspended in sterile saline. Equal volumes of each strain were then combined to prepare the consortium. The bacterial consortium was distributed into the wells of a microtiter plate in the presence or absence of various concentrations of the active materials. The microtiter plates were incubated at 37° C. Optical density (O.D.) readings at 650 nm were taken initially (t0) and after time 4 hours (t4) of incubation.
The raw data was converted to “bacterial growth inhibition percentages” according to the following formula: % Inhibition=[(a−b)÷a]·100 […]
a=(O.D. of control at tn)−(O.D. of control at t0) b=(O.D. of treatment at tn)−(O.D. of treatment at t0)
The inhibition values can be plotted versus dosage for each active and the particular blend. […] The synergism index (SI) was calculated by the equations described by F. C. Kull, P. C. Eisman, H. D. Sylwestrowicz, and R. L. Mayer (1961), Applied Microbiology 9, 538-541. The values are based on the amount needed to achieve a specified end point. […] Synergy Index (SI)=(QA÷Qa)+(QB÷Qb) […]
QA=quantity of compound A in mixture, producing the end point
Qa=quantity of compound A1 acting alone, producing the end point
QB=quantity of compound B in mixture, producing the end point
Qb=quantity of compound B1 acting alone, producing the end point
If SI is less than 1, synergism exists; if SI is greater than 1, antagonism exists, if SI is equal to 1, an additive effect exists.

Row | SMILES | MIC ([1]; pH 7.0, biocide alone) | MIC ([1]; pH 8.0, biocide alone) | MIC ([1]; pH 9.0, biocide alone) | Synergy Index ([2]; pH 5.5) | ppm Dazomet ([2]; pH 5.5, Dazomet alone or in blend with NaOPP giving 50% inhibition, ppm active) | Synergy Index ([2]; pH 8.0) | Ppm Dazomet ([2]; pH 8.0, Dazomet alone or in blend with NaOPP giving 50% inhibition, ppm active)
1 | Oc1ccccc1-c1ccccc1 [OPP, o-Phenylphenol] | 2000 µg/mL | 1000 µg/mL | 500 µg/mL |  |  |  | 
2 | CN1CSC(=S)N(C)C1 [Dazomet, tetrahydo-3,5-dimethyl-2H-1-3-5-thiadiazine-2-thione] | 2000 µg/mL | 2000 µg/mL | 4000 µg/mL | 1.00 | 6.176 ppm | 1.00 | 5.34 ppm
